Results reported in PubChem BioAssay AID1963834 (Molecular Pharmacology Branch, DTP, NCI, 2024).
pIC50: −log10 of the molar value.

System: 873145-292-R-J1-PDC complex spheroid viability
Test: Anticancer human tumor 873145-292-R-J1-PDC patient-derived renal clear cell carcinoma cell line growth inhibition [POLQ]
Conditions: for pIC50: curve of first compound; for viability, T/C: stronger effect = lower value
In short: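 Complex spheroid viability model combining PDC tumour cells with endothelial (HUVEC) and MSC stromal cells. Novobiocin, ART-558 or RP6685 were tested singly and in combination with standard and investigational anticancer drugs. Each was titrated in half-log steps from near clinical Cmax, or from 10 microM where Cmax was unknown.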

[1] = second compound 0.0316 µM, first compound 0.0316 µM
[2] = second compound 0.0316 µM, first compound 0.1 µM
[3] = second compound 0.0316 µM, first compound 0.316 µM
[4] = second compound 0.0316 µM, first compound 1 µM
[5] = second compound 0.0316 µM, first compound 3.16 µM
[6] = second compound 0.0316 µM, first compound 10 µM
[7] = second compound 0.1 µM, first compound 0.0316 µM
[8] = second compound 0.1 µM, first compound 0.1 µM
[9] = second compound 0.1 µM, first compound 0.316 µM
[10] = second compound 0.1 µM, first compound 1 µM
[11] = second compound 0.1 µM, first compound 3.16 µM
[12] = second compound 0.1 µM, first compound 10 µM
[13] = second compound 0.316 µM, first compound 0.0316 µM
[14] = second compound 0.316 µM, first compound 0.1 µM
[15] = second compound 0.316 µM, first compound 0.316 µM
[16] = second compound 0.316 µM, first compound 1 µM
[17] = second compound 0.316 µM, first compound 3.16 µM
[18] = second compound 0.316 µM, first compound 10 µM
[19] = second compound 1 µM, first compound 0.0316 µM
[20] = second compound 1 µM, first compound 0.1 µM
[21] = second compound 1 µM, first compound 0.316 µM
[22] = second compound 1 µM, first compound 1 µM
[23] = second compound 1 µM, first compound 3.16 µM
[24] = second compound 1 µM, first compound 10 µM
[25] = second compound 3.16 µM, first compound 0.0316 µM
[26] = second compound 3.16 µM, first compound 0.1 µM
[27] = second compound 3.16 µM, first compound 0.316 µM
[28] = second compound 3.16 µM, first compound 1 µM
[29] = second compound 3.16 µM, first compound 3.16 µM
[30] = second compound 3.16 µM, first compound 10 µM
[31] = second compound 10 µM, first compound 0.0316 µM
[32] = second compound 10 µM, first compound 0.1 µM
[33] = second compound 10 µM, first compound 0.316 µM
[34] = second compound 10 µM, first compound 1 µM
[35] = second compound 10 µM, first compound 3.16 µM
[36] = second compound 10 µM, first compound 10 µM
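Also: spheroids exposed to compounds for 7 days before viability readout.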
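For viability, T/C in this document: luminescence signal used as surrogate for viable cell content; 100% = DMSO vehicle control viability.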

Structure (SMILES): COc1cc(C2c3cc4c(cc3C(OC3OC5COC(C)OC5C(O)C3O)C3COC(=O)C23)OCO4)cc(OC)c1O (stereo unspecified) + Cc1cccc(N(C)C(=O)C2C(O)CCN2c2nc(C)cc(C(F)(F)F)c2C#N)c1
- pIC50 (second compound 0.0316 µM): 5.02
- pIC50 (second compound 0.1 µM): < 5.00
- pIC50 (second compound 0.316 µM): 5.06
- pIC50 (second compound 1 µM): 5.05
- pIC50 (second compound 3.16 µM): 5.02
- pIC50 (second compound 10 µM): < 5.00
- viability, T/C [1]: 97.9%
- viability, T/C [2]: 98.3%
- viability, T/C [3]: 86.8%
- viability, T/C [4]: 81.4%
- viability, T/C [5]: 68.2%
- viability, T/C [6]: 48.9%
- viability, T/C [7]: 91.2%
- viability, T/C [8]: 94.5%
- viability, T/C [9]: 87.4%
- viability, T/C [10]: 90.1%
- viability, T/C [11]: 68.9%
- viability, T/C [12]: 53.5%
- viability, T/C [13]: 99.6%
- viability, T/C [14]: 97.1%
- viability, T/C [15]: 78.5%
- viability, T/C [16]: 86.8%
- viability, T/C [17]: 68.3%
- viability, T/C [18]: 46.2%
- viability, T/C [19]: 94.6%
- viability, T/C [20]: 96.7%
- viability, T/C [21]: 95%
- viability, T/C [22]: 87%
- viability, T/C [23]: 68.8%
- viability, T/C [24]: 48%
- viability, T/C [25]: 98.9%
- viability, T/C [26]: 82.5%
- viability, T/C [27]: 91.1%
- viability, T/C [28]: 85.8%
- viability, T/C [29]: 74%
- viability, T/C [30]: 48.4%
- viability, T/C [31]: 96.7%
- viability, T/C [32]: 85.3%
- viability, T/C [33]: 81.6%
- viability, T/C [34]: 72.3%
- viability, T/C [35]: 60%
- viability, T/C [36]: 57.1%

Structure (SMILES): COc1cccc2c1C(=O)c1c(O)c3c(c(O)c1C2=O)CC(O)(C(=O)CO)CC3OC1CC(N)C(O)C(C)O1 (stereo unspecified) + Cc1cccc(N(C)C(=O)C2C(O)CCN2c2nc(C)cc(C(F)(F)F)c2C#N)c1
- pIC50 (second compound 0.0316 µM): 5.84
- pIC50 (second compound 0.1 µM): 5.85
- pIC50 (second compound 0.316 µM): 5.87
- pIC50 (second compound 1 µM): 5.87
- pIC50 (second compound 3.16 µM): 5.94
- pIC50 (second compound 10 µM): 6.20
- viability, T/C [1]: 87.6%
- viability, T/C [2]: 83.7%
- viability, T/C [3]: 66.1%
- viability, T/C [4]: 71.8%
- viability, T/C [5]: 2.96%
- viability, T/C [6]: 2.02%
- viability, T/C [7]: 92.2%
- viability, T/C [8]: 82.5%
- viability, T/C [9]: 66.9%
- viability, T/C [10]: 68.6%
- viability, T/C [11]: 4.68%
- viability, T/C [12]: 2.44%
- viability, T/C [13]: 96.4%
- viability, T/C [14]: 75.1%
- viability, T/C [15]: 72.1%
- viability, T/C [16]: 66.1%
- viability, T/C [17]: 4.5%
- viability, T/C [18]: 2.19%
- viability, T/C [19]: 95.8%
- viability, T/C [20]: 69.7%
- viability, T/C [21]: 71.9%
- viability, T/C [22]: 66.4%
- viability, T/C [23]: 3.11%
- viability, T/C [24]: 1.52%
- viability, T/C [25]: 91.1%
- viability, T/C [26]: 83.5%
- viability, T/C [27]: 71.9%
- viability, T/C [28]: 57.1%
- viability, T/C [29]: 2.19%
- viability, T/C [30]: 1.66%
- viability, T/C [31]: 84.8%
- viability, T/C [32]: 73.3%
- viability, T/C [33]: 80.3%
- viability, T/C [34]: 30.8%
- viability, T/C [35]: 0.94%
- viability, T/C [36]: 1.6%

Structure (SMILES): O=c1[nH]cc(F)c(=O)[nH]1 + Cc1cccc(N(C)C(=O)C2C(O)CCN2c2nc(C)cc(C(F)(F)F)c2C#N)c1
- pIC50 (second compound 0.0316 µM): < 5.00
- pIC50 (second compound 0.1 µM): < 5.00
- pIC50 (second compound 0.316 µM): < 5.00
- pIC50 (second compound 1 µM): < 5.00
- pIC50 (second compound 3.16 µM): < 5.00
- pIC50 (second compound 10 µM): < 5.00
- viability, T/C [1]: 106%
- viability, T/C [2]: 104%
- viability, T/C [3]: 99.8%
- viability, T/C [4]: 102%
- viability, T/C [5]: 115%
- viability, T/C [6]: 93.3%
- viability, T/C [7]: 118%
- viability, T/C [8]: 101%
- viability, T/C [9]: 103%
- viability, T/C [10]: 109%
- viability, T/C [11]: 97.2%
- viability, T/C [12]: 100%
- viability, T/C [13]: 98.3%
- viability, T/C [14]: 106%
- viability, T/C [15]: 91.4%
- viability, T/C [16]: 92.4%
- viability, T/C [17]: 117%
- viability, T/C [18]: 102%
- viability, T/C [19]: 102%
- viability, T/C [20]: 113%
- viability, T/C [21]: 100%
- viability, T/C [22]: 95%
- viability, T/C [23]: 109%
- viability, T/C [24]: 96.8%
- viability, T/C [25]: 93.5%
- viability, T/C [26]: 101%
- viability, T/C [27]: 87.7%
- viability, T/C [28]: 92.6%
- viability, T/C [29]: 101%
- viability, T/C [30]: 104%
- viability, T/C [31]: 98.6%
- viability, T/C [32]: 92.9%
- viability, T/C [33]: 94.7%
- viability, T/C [34]: 98.4%
- viability, T/C [35]: 104%
- viability, T/C [36]: 92%
